# Like-named read-outs stand apart in the source and are kept apart here.
# What was measured:
# [1] = biological target: human recombinant IRAK4 protein (Homo sapiens (Human), UniProt Q9NWZ3); assay: IRAK4 enzyme assay (mass spectrometry readout); type: biochemical; details: 3 mM ATP, 0.2 nM enzyme; geometric mean of at least n=2, * single experiment
# Summary of the method: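 0.2 nM IRAK4 preincubated 15 min at room temperature with compound (10-point half-log series, top 1 μM or 10 μM) in pH 7.4 Tris buffer with 3 mM ATP; 10 μM peptide substrate added, 2 h at room temperature, formic acid stop. Phospho/unphospho peptide ratio by LC-MS/MS; potency from curve fit, geometric mean of n≥2 or single run.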
# [2] = test system: IL-1β stimulated IL-8 release in hTHP1 cells; assay: IL-1β-induced IL-8 release in human THP-1 monocyte cell line; type: cell-based; details: THP-1 cells, IL-1β 1.8 ng/mL
# Description: Effect of IRAK4 Inhibitors on IL-1β-Induced Cytokine Release in Human THP-1 Monocyte Cell Line
# THP-1 cells were cultured in RPMI 1640 (Gibco 72400-021) containing 10% FBS (Gibco 10270-106), 1 mM Na-pyruvate (Gibco 11360-070) and 100 U/mL Penicillin-Streptomycin (Gibco 15140-122). Cells were plated at 5×10^4 cells per well in 384 well Echo certified plates (Labcyte PPT-0200) to which compounds had been added at various concentrations (10 point half log dose response with a final top concentration of 10 μM) using an Echo 655 (Labcyte Inc). The plate was incubated for 1 h at 37° C., then recombinant […] (R&D Systems 201-LB-025/CF) was added to a final concentration of 1.8 ng/mL. The plates were incubated at 37° C. for 18h. The plates were centrifuged at 250×g for four minutes, then 1.6 μL of the cell supernatant was transferred to a white low volume 384 well plate (Greiner #784075) using acoustic dispensing on an Echo 655. Next, 200 nL of acceptor bead (5 mg/mL) and biotinylated anti-IL-8 antibody (500 nM) was added using acoustic dispensing (beads and antibody were from a PerkinElmer 18 Alpha LISA detection kit, AL224C). The plate was sealed, briefly centrifuged, then incubated at room temperature for 1 h. Afterwards, 200 nL of donor bead solution (5 mg/mL) was added, the plate sealed and briefly centrifuged, then incubated for 1 h before being read on an Envision plate reader to allow determination the concentration of IRAK4 inhibitor required to effect a 50% reduction in the amount of IL-8 released following IL-1β stimulation in THP1 cells (Table 2). The quantified data were analysed in Genedata Screener 15 (Genedata AG). Data presented are the geometric mean of at least n=2, or as denoted by an * are obtained from a single experiment.
# [3] = biological target: IRAK4 auto-phosphorylation (Homo sapiens (Human), UniProt Q9NWZ3); assay: IRAK4 phosphorylation cell assay in IL-1β-stimulated Karpas-299 cells; type: cell-based; details: IL-1β 22.7 ng/mL, pIRAK4 (Thr345/Ser346), geometric mean of at least 2 experiments
# Chain of IRAK4 auto-phosphorylation (Q9NWZ3 whole entry): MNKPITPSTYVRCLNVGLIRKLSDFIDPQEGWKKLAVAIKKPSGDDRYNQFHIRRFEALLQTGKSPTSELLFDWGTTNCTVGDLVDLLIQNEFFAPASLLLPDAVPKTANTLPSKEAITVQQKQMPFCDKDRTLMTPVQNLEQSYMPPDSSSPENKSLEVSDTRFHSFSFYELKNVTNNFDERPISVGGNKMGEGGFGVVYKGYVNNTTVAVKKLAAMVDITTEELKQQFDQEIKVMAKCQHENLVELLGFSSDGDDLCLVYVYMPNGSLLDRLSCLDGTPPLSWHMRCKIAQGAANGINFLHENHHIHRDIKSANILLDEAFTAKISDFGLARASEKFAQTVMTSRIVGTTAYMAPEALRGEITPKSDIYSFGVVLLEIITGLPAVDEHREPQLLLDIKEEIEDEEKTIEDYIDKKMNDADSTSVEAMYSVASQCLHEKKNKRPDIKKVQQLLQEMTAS
# Summary of the method: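 Karpas-299 cells were preincubated 1 h at 37 °C with compound (10-point half-log series, top 30 μM), then stimulated 10 min with 22.7 ng/mL IL-1β. Cells were fixed and stained for pIRAK4 (Thr345/Ser346), and per-cell fluorescence was quantified by high-content imaging. IC50 values are geometric means of at least 2 experiments.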
# [4] = 18 h, geometric mean of at least n=2, * n = 1, read-out: hTHP1, IL1β stim, IL8 release red. IC50
# [5] = Homo sapiens, THP-1, 18 h, geometric mean of at least n=2, * n = 1, read-out: hTHP1, IL1β stim, IL8 release red. IC50
# Chain of human recombinant IRAK4 protein (Q9NWZ3 whole entry): as above
Molecule,IC50 [1] [nM],"IC50 [2, 4] [nM]",IC50 [3] [nM],"IC50 [2, 5] [nM]"
"2-((1r,4r)-4-(cyclopropanecarboxamido)cyclohexyl)-6-methoxy-N-(pyrazolo[1,5-a]pyrimidin-3-yl)-2H-indazole-5-carboxamide [Example 26]",1.6,25,26,–
"6-Cyclopropoxy-2-((1r,4r)-4-(N-methylacetamido)cyclohexyl)-N-(pyrazolo[1,5-a]pyrimidin-3-yl)-2H-indazole-5-carboxamide [Example 33]",1,30,45,–
"COc1cc2nn(C3CCC4(CC3)CC(C)(O)C4)cc2cc1C(=O)Nc1cnc2cccnn12 (single isomer, unassigned) [Example 5, 2-(2-Hydroxy-2-methylspiro[3.5]nonan-7-yl)-N-(imidazo[1,2-b]pyridazin-3-yl)-6-methoxy-2H-indazole-5-carboxamide]",0.5,–,31,16
"COc1cc2nn([C@H]3CCC[C@@H](O)C3)cc2cc1C(=O)Nc1cnc2cccnn12 (single isomer, unassigned) [Example 10]",1.2,–,19,14
"COc1cc2nn([C@H]3CCC[C@@H](O)C3)cc2cc1C(=O)Nc1cnn2cccnc12 (single isomer, unassigned) [Example 13]",6.5,–,816,59
"COc1cc2nn([C@H]3CCC[C@@H](O)C3)cc2cc1C(=O)Nc1cnn2cccnc12 (single isomer, unassigned) [Example 14]",17.7,38,171,–
"O=C(Nc1cnn2cccnc12)c1cc2cn([C@H]3CCC[C@H](O)C3)nc2cc1OC1CC1 (single isomer, unassigned) [Example 19]",1,–,47,35
"O=C(Nc1cnn2cccnc12)c1cc2cn([C@H]3CCC[C@H](O)C3)nc2cc1OC1CC1 (single isomer, unassigned) [Example 20]",0.7,31,35,–
"CC(=O)N1CC2(CC[C@@H](n3cc4cc(C(=O)Nc5cnn6cccnc56)c(OC5CC5)cc4n3)[C@H](C)C2)C1 (single isomer, unassigned) [Example 29]",0.5,–,31,20
"CC(=O)N1CC2(CC[C@@H](n3cc4cc(C(=O)Nc5cnn6cccnc56)c(OC5CC5)cc4n3)[C@@H](C)C2)C1 (single isomer, unassigned) [Example 30]",< 0.3,14,46,–
"CC(=O)N1CC2(CC[C@@H](n3cc4cc(C(=O)Nc5cnn6cccnc56)c(OC5CC5)cc4n3)[C@@H](C)C2)C1 (single isomer, unassigned) [Example 31]",0.8,32,71,–
"COc1cc2nn([C@H]3CCC(N(C)C(C)=O)C[C@@H]3C)cc2cc1C(=O)Nc1cnc2cccnn12 (single isomer, unassigned) [Example 34, N-(imidazo[1,2-b]pyridazin-3-yl)-6-methoxy-2-((1S,2S,4R*)-2-methyl-4-(N-methylacetamido)cyclohexyl)-2H-indazole-5-carboxamide]",2,–,31,22
"COc1cc2nn([C@@H]3CCC(N(C)C(C)=O)C[C@H]3C)cc2cc1C(=O)Nc1cnc2cccnn12 (single isomer, unassigned) [Example 37, N-(imidazo[1,2-b]pyridazin-3-yl)-6-methoxy-2-(1R,2R,4R*)-2-methyl-4-(N-methylacetamido)cyclohexyl)-2H-indazole-5-carboxamide]",0.3,–,6,3
"COc1cc2nn(C3CCC(N(C)C(=O)[C@H]4C[C@H](O)C4)CC3)cc2cc1C(=O)Nc1cnn2cccnc12 (stereo partly drawn) [Example 97, 2-((1R,4r)-4-((1r,3R)-3-hydroxy-N-methylcyclobutane-1-carboxamido)cyclohexyl)-6-methoxy-N-(pyrazolo[1,5-a]pyrimidin-3-yl)-2H-indazole-5-carboxamide]",0.7,–,15,–
"COc1cc2nn(C3CCC(N(C)C(=O)C4CC(O)C4)CC3)cc2cc1C(=O)Nc1cnn2cnccc12 [Example 98, 2-((1R,4r)-4-((1s,3S)-3-hydroxy-N-methylcyclobutane-1-carboxamido)cyclohexyl)-6-methoxy-N-(pyrazolo[1,5-c]pyrimidin-3-yl)-2H-indazole-5-carboxamide]",0.6,–,20,–
"COc1cc2nn([C@H]3CC[C@H](N(C)C(=O)C(C)(C)O)CC3)cc2cc1C(=O)Nc1cnn2cnccc12 [Example 99, 2-((1r,4r)-4-(2-Hydroxy-N,2-dimethylpropanamido)cyclohexyl)-6-methoxy-N-(pyrazolo[1,5-c]pyrimidin-3-yl)-2H-indazole-5-carboxamide]",1.2,–,35,–
"CO[C@H]1C[C@H](Oc2cc3nn(C4CCC5(CC4)CN(C(C)=O)C5)cc3cc2C(=O)Nc2cnc3cccnn23)C1 [Example 100, 2-(2-Acetyl-2-azaspiro[3.5]nonan-7-yl)-N-(imidazo[1,2-b]pyridazin-3-yl)-6-((1r,3r)-3-methoxycyclobutoxy)-2H-indazole-5-carboxamide]",< 0.03,–,6,–
"CO[C@H]1C[C@@H](Oc2cc3nn(C4CCC5(CC4)CN(C(C)=O)C5)cc3cc2C(=O)Nc2cnc3cccnn23)C1 [Example 101, 2-(2-Acetyl-2-azaspiro[3.5]nonan-7-yl)-N-(imidazo[1,2-b]pyridazin-3-yl)-6-((1s,3s)-3-methoxycyclobutoxy)-2H-indazole-5-carboxamide]",< 0.4,–,31,–
"COc1cc2nn([C@H]3CC[C@H](n4ccnn4)CC3)cc2cc1C(=O)Nc1cnc2cccnn12 [Example 102, 2-((1r,4r)-4-(1H-1,2,3-triazol-1-yl)cyclohexyl)-N-(imidazo[1,2-b]pyridazin-3-yl)-6-methoxy-2H-indazole-5-carboxamide]",0.7,–,19,–
"COc1cc2nn([C@H]3CC[C@H](n4nccn4)CC3)cc2cc1C(=O)Nc1cnc2cccnn12 [Example 103, 2-((1r,4r)-4-(2H-1,2,3-triazol-2-yl)cyclohexyl)-N-(imidazo[1,2-b]pyridazin-3-yl)-6-methoxy-2H-indazole-5-carboxamide]",0.6,–,17,–
"COc1cc2nn([C@H]3CC[C@H](N(C)C(=O)C[C@H](C)O)CC3)cc2cc1C(=O)Nc1cnn2cccnc12 [Example 110, 2-((1S,4r)-4-((S)-3-Hydroxy-N-methylbutanamido)cyclohexyl)-6-methoxy-N-(pyrazolo[1,5-a]pyrimidin-3-yl)-2H-indazole-5-carboxamide]",0.9,–,16,–
"COc1cc2nn([C@H]3CC[C@H](N(C)C(=O)C[C@@H](C)O)CC3)cc2cc1C(=O)Nc1cnn2cccnc12 [Example 111, 2-((1R,4r)-4-((R)-3-Hydroxy-N-methylbutanamido)cyclohexyl)-6-methoxy-N-(pyrazolo[1,5-a]pyrimidin-3-yl)-2H-indazole-5-carboxamide]",0.9,–,27,–
"COc1cc2nn([C@H]3CC[C@H](N(C)C(=O)N4CC[C@H](O)C4)CC3)cc2cc1C(=O)Nc1cnc2cccnn12 [Example 116, 2-((1S,4r)-4-((S)-3-Hydroxy-N-methylpyrrolidine-1-carboxamido)cyclohexyl)-N-(imidazo[1,2-b]pyridazin-3-yl)-6-methoxy-2H-indazole-5-carboxamide]",0.3,–,13,–
"COc1cc2nn([C@H]3CC[C@H](N(C)C(=O)N4CC[C@@H](O)C4)CC3)cc2cc1C(=O)Nc1cnc2cccnn12 [Example 117, 2-((1R,4r)-4-((R)-3-Hydroxy-N-methylpyrrolidine-1-carboxamido)cyclohexyl)-N-(imidazo[1,2-b]pyridazin-3-yl)-6-methoxy-2H-indazole-5-carboxamide]",0.3,–,22,–
